Measurements published in patent US12172975B2, “1H-indazole carboxamides as receptor-interacting protein kinase 1 inhibitors (RIPK1)” (BRISTOL-MYERS SQUIBB COMPANY, priority 2018, dated 2024).
Where a name gives a salt, the structure may show the parent alone. Read-outs that look alike come from different tables or passages of the source.

Tests used:
[1] = biological target: His-GST-TVMV-hRIPK1 (1-324) (Homo sapiens (Human), UniProt Q13546); test: RIPK1 HTRF Binding Assay; settings: read-out: RIPK1 HTRF (IC50); FRET probe displacement, 1 h at rt
Sequence of His-GST-TVMV-hRIPK1 (1-324) (Q13546 1-324): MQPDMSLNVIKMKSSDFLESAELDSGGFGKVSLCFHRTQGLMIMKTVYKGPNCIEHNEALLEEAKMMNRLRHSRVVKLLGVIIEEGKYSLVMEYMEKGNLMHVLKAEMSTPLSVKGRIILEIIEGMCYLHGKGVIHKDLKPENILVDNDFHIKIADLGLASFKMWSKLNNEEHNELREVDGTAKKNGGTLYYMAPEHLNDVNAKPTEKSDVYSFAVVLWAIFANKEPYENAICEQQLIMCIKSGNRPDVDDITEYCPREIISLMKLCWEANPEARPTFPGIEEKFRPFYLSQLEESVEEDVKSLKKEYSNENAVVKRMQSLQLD

[2] = test system: MLKL phosphorylation in HT29-L23 human colorectal adenocarcinoma cells; test: MLKL Phosphorylation High-Content Assay; type: cell-based; settings: 6 h, necroptosis induced with TNFα, SMAC mimetic and Z-VAD, read-out: pMLKL (IC50)
In short: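 Following fixation and staining for phospho-S358 MLKL with Hoechst nuclear counterstain, high-content imaging quantified phosphorylation in HT29-L23 cells challenged 6 h with TNFα 35 ng/mL, SMAC mimetic 700 nM and Z-VAD 140 nM. Nec-1s at 6.25 μM defined full inhibition; 4-parameter logistic fits yielded IC50 and Ymax.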

SMILES | IC50 [1] [nM] | IC50 ([2]; Homo sapiens) [nM] | IC50 [2] [nM]
CNC(=O)c1n[nH]c2cc(-c3cnc(OC)c(C(=O)NCCCOc4ccc(F)cc4)c3)ccc12 [Example 63, 6-(5-{[3-(4-fluorophenoxy)-propyl]carbamoyl}-6-methoxy-pyridin-3-yl)-N-methyl-1H-indazole-3-carboxamide] | 2.3 | 16 | 
CNC(=O)c1n[nH]c2cc(-c3cnc(OC)c(C(=O)NCCCOCC(C)C)c3)ccc12 [Example 64, 6-(6-methoxy-5-{[3-(2-methyl-propoxy)propyl]carbamoyl}-pyridin-3-yl)-N-methyl-1H-indazole-3-carboxamide] | 8.1 | 3 | 
CNC(=O)c1n[nH]c2cc(-c3cnc(OC)c(C(=O)NCCC(O)c4ccc(Cl)cn4)c3)ccc12 (stereo not drawn) [Example 65, 6-(5-{[3-(5-chloropyridin-2-yl)-3-hydroxypropyl]carbamoyl}-6-methoxypyridin-3-yl)-N-methyl-1H-indazole-3-carbox-amide] | 8.3 |  | 1.6
CNC(=O)c1n[nH]c2cc(-c3cnc(OC)c(C(=O)NCC4(COc5ccccc5)CC4)c3)ccc12 [Example 68, 6-[6-methoxy-5-({[1-(phenoxy-methyl)cyclopropyl]methyl}-carbamoyl)-pyridin-3-yl]-N-methyl-1H-indazole-3-carbox-amide] | 4.6 |  | 28
CNC(=O)c1n[nH]c2cc(-c3cnc(OC)c(C(=O)NCC4(c5ccc(F)cc5)CC4)c3)ccc12 [Example 71, 6-[5-({[1-(4-fluorophenyl)cyclo-propyl]methyl}carbamoyl)-6-methoxypyridin-3-yl]-N-methyl-1H-indazole-3-carboxamide] | 80 | 77 | 
CNC(=O)c1n[nH]c2cc(-c3cnc(OC)c(C(=O)NCC4(c5ccccc5OC(F)(F)F)CC4)c3)ccc12 [Example 72, 6-{6-methoxy-5-[({1-[2-(tri-fluoromethoxy)phenyl]cyclo-propyl}methyl)carbamoyl]-pyridin-3-yl}-N-methyl-1H-indazole-3-carboxamide] | 390 | 400 | 
CNC(=O)c1n[nH]c2cc(-c3cnc(OC)c(C(=O)NCc4ccccc4NC(=O)OC(C)(C)C)c3)ccc12 [Example 73, tert-butyl-N-{2-[({2-methoxy-5-[3-(methylcarbamoyl)-1H-indazol-6-yl]pyridin-3-yl}-formamido)methyl]phenyl}-carbamate] | 4.7 | 120 | 
CNC(=O)c1n[nH]c2cc(-c3cnc(OC)c(C(=O)NCCC(=O)OC(C)(C)C)c3)ccc12 [Example 74, tert-butyl 3-({2-methoxy-5-[3-(methylcarbamoyl)-1H-indazol-6-yl]pyridin-3-yl}formamido)-propanoate] | 28 | 62 | 
CNC(=O)c1n[nH]c2cc(-c3cnc(OC)c(C(=O)NCc4ccccc4OCC(F)(F)F)c3)ccc12 [Example 75, 6-[6-methoxy-5-({[2-(2,2,2-trifluoroethoxy)phenyl]-methyl}carbamoyl)pyridin-3-yl]-N-methyl-1H-indazole-3-carboxamide, TFA] | 1.8 |  | 4.4
CNC(=O)c1n[nH]c2cc(-c3cnc(OC)c(C(=O)NCc4cc(C(F)(F)F)ccc4OC)c3)ccc12 [Example 76, 6-[6-methoxy-5-({[2-methoxy-5-(trifluoromethyl)phenyl]-methyl}carbamoyl)pyridin-3-yl]-N-methyl-1H-indazole-3-carboxamide] | 98 | 100 | 
CNC(=O)c1n[nH]c2cc(-c3cnc(OC)c(C(=O)NC[C@@H]4CCCC[C@H]4NC(=O)OC(C)(C)C)c3)ccc12 [Example 77, tert-butyl N-[(1R,2S)-2-[({2-methoxy-5-[3-(methylcarbam-oyl)-1H-indazol-6-yl]pyridin-3-yl}formamido)methyl]-cyclohexyl]carbamate] | 3.8 |  | 78
CNC(=O)c1n[nH]c2cc(-c3cnc(OC)c(C(=O)NCC4CCCOC4c4ccccc4)c3)ccc12 (stereo not drawn) [Example 79, 6-(6-methoxy-5-{[(2-phenyl-oxan-3-yl)methyl]carbamoyl}-pyridin-3-yl)-N-methyl-1H-indazole-3-carboxamide] | 1.8 | 21 | 
CNC(=O)c1n[nH]c2cc(-c3cnc(OC)c(C(=O)NCC4CCCOC4C(C)(C)C)c3)ccc12 (stereo not drawn) [Example 83, 6-(5-{[(2-tert-butyloxan-3-yl)-methyl]carbamoyl}-6-methoxy-pyridin-3-yl)-N-methyl-1H-indazole-3-carboxamide] | 7.6 | 47 | 
CNC(=O)c1n[nH]c2cc(-c3cnc(OC)c(C(=O)NCc4ccccc4C#N)c3)ccc12 [Example 84, 6-(5-{[(2-cyanophenyl)methyl]-carbamoyl}-6-methoxypyridin-3-yl)-N-methyl-1H-indazole-3-carboxamide] | 45 | 180 | 
CNC(=O)c1n[nH]c2cc(-c3cnc(OC)c(C(=O)NCc4ccccc4OCC4CCC4)c3)ccc12 [Example 86, 6-[5-({[2-(cyclobutylmethoxy)-phenyl]methyl}carbamoyl)-6-methoxypyridin-3-yl]-N-methyl-1H-indazole-3-carbox-amide] | 2.4 |  | 4.1
CNC(=O)c1n[nH]c2cc(-c3cnc(OC)c(C(=O)NC4CCCC(OCC(F)(F)F)C4)c3)ccc12 (stereo not drawn) [Example 87, 6-(6-methoxy-5-{[3-(2,2,2-trifluoroethoxy)cyclohexyl]-carbamoyl}pyridin-3-yl)-N-methyl-1H-indazole-3-carbox-amide] | 3.9 |  | 13
CCOC(=O)C(C)(C)CNC(=O)c1cc(-c2ccc3c(C(=O)NC)n[nH]c3c2)cnc1OC [Example 88, ethyl 3-({2-methoxy-5-[3-(methylcarbamoyl)-1H-indazol-6-yl]pyridin-3-yl}-formamido)-2,2-dimethyl-propanoate] | 52 | 250 | 
CNC(=O)c1n[nH]c2cc(-c3cnc(OC)c(C(=O)NCC(C)(C)C(=O)OC(C)(C)C)c3)ccc12 [Example 90, tert-butyl 3-({2-methoxy-5-[3-(methylcarbamoyl)-1H-indazol-6-yl]pyridin-3-yl}-formamido)-2,2-dimethyl-propanoate] | 16 | 47 | 
CNC(=O)c1n[nH]c2cc(-c3cnc(OC)c(C(=O)NCC(C)(C)C(=O)NCc4ccc(F)cc4)c3)ccc12 [Example 91, 6-{5-[(2-{[(4-fluorophenyl)-methyl]carbamoyl}-2,2-dimethylethyl)carbamoyl]-6-methoxypyridin-3-yl}-N-methyl-1H-indazole-3-carboxamide] | 1.8 | 16 | 
CNC(=O)c1n[nH]c2cc(-c3cnc(OC)c(C(=O)NCc4ccccc4OC(C)C)c3)ccc12 [Example 93, 6-[6-methoxy-5-({[2-(propan-2-yloxy)phenyl]methyl}-carbamoyl)pyridin-3-yl]-N-methyl-1H-indazole-3-carbox-amide] | 1.3 |  | 8.3
CNC(=O)c1n[nH]c2cc(-c3cnc(OC)c(C(=O)NCc4cccnc4OC)c3)ccc12 [Example 94, 6-(6-methoxy-5-{[(2-methoxy-pyridin-3-yl)methyl]carbam-oyl}pyridin-3-yl)-N-methyl-1H-indazole-3-carboxamide, TFA] | 9.9 |  | 96
